Results taken from publication PMC8876511, “Two out of Three Musketeers Fight against Cancer: Synthesis, Physicochemical, and Biological Properties of Phosphino Cu^I, Ru^II, Ir^III Complexes” (Pharmaceuticals, 2022).

Key:
Assay type in all cases: cell-based, human
A549 cells [1] = test: MTT cytotoxicity assay, A549; details: 48 h
HaCaT cells = test: MTT cytotoxicity assay, HaCaT (non-cancer)
Experimental: (§1) Moreover, to investigate the activity of synthesized complexes as potential anticancer agents, their cytotoxicity toward a series of human cancer cell lines and a non-cancer cell line (HaCaT) was evaluated using the MTT assay. […] In addition, we also determined the cytotoxic activity of free ligands toward selected cancer cells. […] However, this effect depends on the cell line. […] The best values of cytotoxic activity of compounds have been obtained after 72 h of cell incubation. Additionally, synthesized complexes had high sensitivity to A549 cells, so this cell line was selected as the research subject for antitumor activity.
(§2) MCF7 cell line (human breast adenocarcinoma, morphology: epithelial-like, ATCC: HTB-22) and A549 cell line (human lung adenocarcinoma, morphology: epithelial, ATCC: CCL-185); HaCaT (human keratinocyte) were cultured in Dulbecco’s Modified Eagle’s Medium (DMEM, Corning, Poland) with phenol red, supplemented with 10% fetal bovine serum (FBS) and with 1% streptomycin/penicillin. Du-145 cell line (human prostate carcinoma); derived from metastatic site: brain was cultured in minimum essential medium (MEM, Corning) with only 10% fetal bovine serum (FBS). Cultures were incubated at 37 °C under a humidified atmosphere containing 5% CO2. Cells were passaged using a solution containing 0.05% trypsin and 0.5 mM EDTA. All media and other ingredients were purchased from ALAB, Poland.
(§3) Since most of the studied compounds are insoluble in aqueous media (Dulbecco’s Modified Eagle’s Medium or minimum essential medium (MEM, Corning), therefore, they needed to be pre-dissolved in DMSO for biological tests. DMSO concentration was kept below 1% in each tested concentration of each compound. Cytotoxicity was assessed by MTT assay performed according to the protocols described previously in the following experimental approaches: 6 h + 24 h, 24 h + 24 h, and 72 h + 24 h. In brief, 5×10^3 per well (0.2 mL) in the two first approaches, while 1×10^4 cells in the case of longer incubation time were seeded in 96-well flat-bottom microtiter plate, were incubated with the tested complexes at various ranges of concentrations. After an appropriate incubation time of 6, 24, or 72 h, the cells were washed thee time with PBS and fresh medium was applied for a further 24 h in each approach. Various compound concentrations (dilutions in proper medium supplemented with 1% FBS) were tested in five replicates and repeated at least three times. Determined values of IC50 (concentration of a drug required to inhibit the growth of 50% of the cells) are given as mean + S.D. (Standard Deviation). IC50 values were determined, from the plots of cell viability in the presence of various concentrations of each compound by matching dose–response curves and using the Origin 9.0 software. Furthermore, post-treatment survival assessment of the treated cells was analyzed under an inverted fluorescence microscope (Olympus IC51, Japan) with an excitation filter 470/20 nm. For this, cells were stained with two versatile fluorescence dyes: fluorescein diacetate (FDA, 5 mg/mL) and propidium iodide (PI, 5 mg/mL) in standard conditions in the dark for 20 min. Before visualization, dyes were removed and cells were washed with PBS twice.

PANC-1 cells = test: MTT cytotoxicity assay, PANC-1; details: 48 h
Du-145 cells = test: MTT cytotoxicity assay, Du-145
Experimental: as §1, §2
as §3, with “Cytotoxicity was assessed by MTT assay performed according to the protocols described previously in the following experimental approaches: 6 h + 24 h, 24 h + 24 h, and 72 h + 24 h.” left out, “After an appropriate incubation time of 6, 24, or 72 h, the cells were washed thee time with PBS and fresh medium was applied for a further 24 h in each approach.” left out

MCF-7 cells = test: MTT cytotoxicity assay, MCF-7
Experimental: as §1, §2
as §3, with “Cytotoxicity was assessed by MTT assay performed according to the protocols described previously in the following experimental approaches: 6 h + 24 h, 24 h + 24 h, and 72 h + 24 h.” left out, “After an appropriate incubation time of 6, 24, or 72 h, the cells were washed thee time with PBS and fresh medium was applied for a further 24 h in each approach.” left out

A549 cells [2] = test: Annexin V-FITC/PI double staining, flow cytometry; details: A549, 50 μM, 24 h
Experimental: The cell death induced by selected Ir(III) and Ru(II) complexes was assessed using Annexin V-FITC/PI double staining. Based on this assay the differentiation of the following cells population was possible: viable cells (Annexin-FITC negative, PI negative), apoptotic cells (Annexin-FITC positive, PI negative), late apoptotic cells (Annexin-FITC positive and PI positive), and necrotic cells (Annexin-FITC negative, PI positive). Treatment of A549 cells with Ir(III) or Ru(II) complexes leads to a dose-dependent increase in the percentage of cells in each phase (Figure 5).
Cell death was quantified using the AnnexinV-FITC/PI double staining kit (Sigma Aldrich). The cells (1 × 10^5 per well) were cultured overnight in 12-well plates. Then, cells were treated with tested compounds for 24 h. After this time, cells were passaged, collected by centrifugation, and washed twice in Hank’s Balanced Salt Solution (HBBS). The cells were then re-suspended in 500 μL binding buffer and stained with annexin V-FITC and PI according to the manufacturer’s instructions (Sigma Aldrich). Stained A549 cells were then examined using a Guava® easyCyte™ flow cytometer equipped with a 488 nm laser. The obtained data were analyzed using InCyte software (MerckMillipore, Burlington, MA, USA).

Compound	IC50 (A549 cells [1])	IC50 (HaCaT cells; 24 h)	IC50 (HaCaT cells; 72 h)	IC50 (PANC-1 cells)	IC50 (Du-145 cells; 24 h)	IC50 (Du-145 cells; 48 h)	IC50 (Du-145 cells; 72 h)	IC50 (MCF-7 cells; 24 h)	IC50 (MCF-7 cells; 48 h)	IC50 (MCF-7 cells; 72 h)	late apoptotic cells (upper right quadrant) (A549 cells [2])
CCN(CC)C[P+](c1ccccc1)(c1ccccc1)[Ir-3]([Cl])([Cl])[C]1(C)C(C)=C(C)C(C)=C1C [1a, Ir(η^5-Cp*)Cl2Ph2PCH2N(CH2CH3)2]	45 ± 4 µM	456 ± 11 µM	320 ± 19 µM	204 ± 29 µM	90 ± 5 µM	85 ± 9 µM	19 ± 3 µM	189 ± 9 µM	184 ± 6 µM	85 ± 8 µM	–
Ru(η^6-p-cymene)Cl2Ph2PCH2N(CH2CH3)2 [1b]	425 ± 38 µM	446 ± 20 µM	303 ± 20 µM	305 ± 13 µM	122 ± 11 µM	126 ± 12 µM	23 ± 2 µM	295 ± 12 µM	352 ± 25 µM	145 ± 15 µM	30%
